Tests used:
[1] = target: T1, Beta-secretase 1 (Homo sapiens, UniProt P56817); assay: Inhibition of BACE1 assessed as amyloid beta secretion by cell based assay
[2] = target: T1, Beta-secretase 1; assay: Binding affinity to BACE1 at 2 mM by surface plasmon resonance assay
[3] = Genotoxicity in Salmonella Typhimurium by Ames test; type: toxicity; details: salmonella enterica subsp. enterica serovar typhimurium
[4] = Genotoxicity in Salmonella Typhimurium by Ames test in presence of S9 liver microsomes; type: toxicity, Microsome; details: salmonella enterica subsp. enterica serovar typhimurium
[5] = target: Voltage-gated inwardly rectifying potassium channel KCNH2 (Homo sapiens, UniProt Q12809); assay: Inhibition of human ERG
[6] = target: Cathepsin D (Homo sapiens, UniProt P07339); assay: Inhibition of cathepsin D
[7] = target: T2, Beta-secretase 2 (Homo sapiens, UniProt Q9Y5Z0); assay: Inhibition of human BACE2
T2 sequence (Q9Y5Z0 whole entry): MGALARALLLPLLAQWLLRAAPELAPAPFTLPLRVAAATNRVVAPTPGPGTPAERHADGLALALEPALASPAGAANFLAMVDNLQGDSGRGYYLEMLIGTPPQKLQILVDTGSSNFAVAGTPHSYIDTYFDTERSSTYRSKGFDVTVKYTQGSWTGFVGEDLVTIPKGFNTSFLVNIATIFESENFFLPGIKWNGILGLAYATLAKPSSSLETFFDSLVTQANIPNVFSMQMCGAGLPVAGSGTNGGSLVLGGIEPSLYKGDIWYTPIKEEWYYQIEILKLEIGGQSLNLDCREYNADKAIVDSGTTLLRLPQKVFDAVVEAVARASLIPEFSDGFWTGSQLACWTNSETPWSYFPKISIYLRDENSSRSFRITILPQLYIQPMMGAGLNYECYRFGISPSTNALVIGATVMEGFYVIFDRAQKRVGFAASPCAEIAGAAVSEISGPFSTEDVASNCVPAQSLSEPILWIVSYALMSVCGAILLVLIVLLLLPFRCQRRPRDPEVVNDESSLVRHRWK

[8] = Half life in human liver microsomes; type: ADME, Microsome
[9] = Half life in rat liver microsomes; type: ADME, Microsome
[10] = Maximum drug flux by PAMPA; type: ADME

T1 sequence (P56817 whole entry): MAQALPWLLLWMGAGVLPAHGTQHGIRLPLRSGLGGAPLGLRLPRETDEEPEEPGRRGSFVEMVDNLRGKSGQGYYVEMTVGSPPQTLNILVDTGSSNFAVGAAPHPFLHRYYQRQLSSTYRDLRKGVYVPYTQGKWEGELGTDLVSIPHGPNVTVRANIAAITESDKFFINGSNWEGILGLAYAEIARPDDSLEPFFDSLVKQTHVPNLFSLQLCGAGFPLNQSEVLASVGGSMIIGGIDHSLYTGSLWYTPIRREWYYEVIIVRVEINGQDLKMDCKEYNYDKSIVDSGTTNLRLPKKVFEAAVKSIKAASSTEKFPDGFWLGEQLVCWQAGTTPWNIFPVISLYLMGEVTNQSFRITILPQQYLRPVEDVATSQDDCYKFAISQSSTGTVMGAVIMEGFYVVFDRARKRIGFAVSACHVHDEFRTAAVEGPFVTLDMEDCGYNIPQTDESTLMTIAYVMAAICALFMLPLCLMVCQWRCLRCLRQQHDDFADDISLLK
Chain of Cathepsin D (P07339 65-162 limits assumed): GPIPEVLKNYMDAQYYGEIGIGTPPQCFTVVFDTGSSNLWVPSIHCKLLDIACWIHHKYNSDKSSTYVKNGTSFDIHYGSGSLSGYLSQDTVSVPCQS
Chain of Cathepsin D (P07339 169-412 limits assumed): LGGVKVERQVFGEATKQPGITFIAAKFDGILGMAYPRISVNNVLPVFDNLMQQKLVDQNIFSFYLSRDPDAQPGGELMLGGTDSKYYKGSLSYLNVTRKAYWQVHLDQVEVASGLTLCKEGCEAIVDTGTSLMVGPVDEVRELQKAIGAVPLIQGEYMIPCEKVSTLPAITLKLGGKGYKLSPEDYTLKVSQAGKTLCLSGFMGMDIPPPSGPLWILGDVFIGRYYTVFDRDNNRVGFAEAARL
Chain of Voltage-gated inwardly rectifying potassium channel KCNH2 (Q12809 whole entry): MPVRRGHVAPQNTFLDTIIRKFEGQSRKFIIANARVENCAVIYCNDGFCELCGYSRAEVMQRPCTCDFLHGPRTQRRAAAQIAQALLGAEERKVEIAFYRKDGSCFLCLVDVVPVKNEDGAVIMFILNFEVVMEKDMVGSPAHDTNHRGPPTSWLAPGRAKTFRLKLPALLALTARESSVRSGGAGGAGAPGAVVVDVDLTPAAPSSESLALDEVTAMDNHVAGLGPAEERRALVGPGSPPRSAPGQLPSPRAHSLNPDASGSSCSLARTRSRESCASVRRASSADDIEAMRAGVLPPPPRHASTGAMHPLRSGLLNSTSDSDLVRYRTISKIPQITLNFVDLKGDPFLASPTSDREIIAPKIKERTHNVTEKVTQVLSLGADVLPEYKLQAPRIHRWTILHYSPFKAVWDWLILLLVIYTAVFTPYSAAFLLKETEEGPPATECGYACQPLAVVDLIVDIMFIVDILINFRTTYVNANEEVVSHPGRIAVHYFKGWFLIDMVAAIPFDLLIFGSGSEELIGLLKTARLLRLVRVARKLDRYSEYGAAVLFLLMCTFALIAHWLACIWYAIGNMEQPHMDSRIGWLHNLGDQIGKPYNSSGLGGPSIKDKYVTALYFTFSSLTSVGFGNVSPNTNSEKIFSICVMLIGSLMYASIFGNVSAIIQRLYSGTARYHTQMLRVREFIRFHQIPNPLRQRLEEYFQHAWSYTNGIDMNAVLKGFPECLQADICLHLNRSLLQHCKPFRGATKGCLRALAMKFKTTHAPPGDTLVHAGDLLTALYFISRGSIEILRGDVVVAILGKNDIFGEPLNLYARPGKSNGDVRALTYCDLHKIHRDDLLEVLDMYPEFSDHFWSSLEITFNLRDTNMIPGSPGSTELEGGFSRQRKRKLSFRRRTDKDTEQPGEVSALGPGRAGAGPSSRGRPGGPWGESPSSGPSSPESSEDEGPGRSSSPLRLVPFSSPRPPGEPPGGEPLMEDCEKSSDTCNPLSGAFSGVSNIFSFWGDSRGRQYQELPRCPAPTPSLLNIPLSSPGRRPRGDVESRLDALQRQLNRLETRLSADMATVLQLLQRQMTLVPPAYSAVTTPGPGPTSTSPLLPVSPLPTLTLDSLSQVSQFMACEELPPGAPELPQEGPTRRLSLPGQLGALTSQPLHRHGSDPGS

Row | Compound | IC50 [1] [µM] | other results
1 | CC[C@@H](CC(=O)NCc1ccccc1)n1c(N)nc2cc(Cl)ccc21 | 72 | 
2 | Nc1nc2cc(Cl)ccc2n1CCCO | 770 | inhibition [2]: 63%
3 | CC(C)NC(=O)CCCn1c(N)nc2cc(Cl)ccc21 | 193 | 
4 | CC(C)C[C@@H](CC(=O)NC(C)C)n1c(N)nc2cc(Cl)ccc21 | 246 | 
5 | CN1CCC(NC(=O)CCCn2c(N)nc3cc(Cl)ccc32)CC1 | 325 | 
6 | CN(Cc1cccc(F)c1)C(=O)CCCn1c(N)nc2cc(Cl)ccc21 | 194 | 
7 | CC(C)C[C@H](CC(=O)NC(C)C)n1c(N)nc2cc(Cl)ccc21 | > 1000 | 
8 | CC(C)C[C@@H](CC(=O)NCc1cccc(F)c1)n1c(N)nc2cc(Cl)ccc21 | 54 | 
9 | Nc1nc2cc(Cl)ccc2n1CCCC(=O)NCc1ccccn1 | 426 | 
10 | CC[C@@H](CC(=O)N[C@H](COC(C)(C)C)C(=O)OC)n1c(N)nc2cc(Cl)ccc21 | 75 | 
11 | CC[C@@H](CC(=O)N(C)CC1CCCCC1)n1c(N)nc2cc(Cl)ccc21 | 375 | 
12 | CN(CC1CCCCC1)C(=O)CCCn1c(N)nc2cc(Cl)ccc21 | 59 | 
13 | Nc1nc2cc(Cl)ccc2n1CCCC(=O)NCc1ccccc1 | 1400 | 
14 | Nc1nc2cc(Cl)ccc2n1CCCC(=O)NCc1cccc(F)c1 | 249 | 
15 | CC[C@@H](CC(=O)NCC1CCOCC1)n1c(N)nc2cc(Cl)ccc21 | > 1000 | 
16 | CC[C@@H](CC(=O)NCCN1CCOCC1)n1c(N)nc2cc(Cl)ccc21 | 440 | 
17 | CC[C@@H](CC(=O)NCc1ccccn1)n1c(N)nc2cc(Cl)ccc21 | > 1000 | 
18 | CC[C@@H](CC(=O)N[C@@H](COC(C)(C)C)C(=O)O)n1c(N)nc2cc(Cl)ccc21 | 87 | 
19 | Nc1nc2cc(Cl)ccc2n1CCCC(=O)NCCC1CCNC1 (stereo not given) | 444 | 

Row | Compound | IC50 [1] [µM] | other results
20 | CC(C)C[C@@H](CC(=O)NCc1ccccn1)n1c(N)nc2cc(Cl)ccc21 | 235 | 
21 | Nc1nc2cc(Cl)ccc2n1CCCC(=O)NCC1CC1 | 2850 | 
22 | CC[C@@H](CC(=O)NCc1ccc(F)cc1)n1c(N)nc2cc(Cl)ccc21 | 264 | 
23 | CC[C@H](CC(=O)NCc1ccccc1)n1c(N)nc2cc(Cl)ccc21 | 516 | 
24 | CC[C@@H](CC(=O)NCCC(C)(C)C)n1c(N)nc2cc(Cl)ccc21 | 95 | 
25 | CC[C@@H](CC(=O)NCC1CCCCC1)n1c(N)nc2cc(Cl)ccc21 |  | Activity [3]: Non-toxic; Activity [4]: Non-toxic; IC50 [5]: 7.5 µM; IC50 [6]: 42 µM; IC50 [7]: 8 µM; half-life [8]: 5.5 min; half-life [9]: 6.7 min; Activity [10]: 12%
26 | CC[C@@H](CC(=O)NCc1cccc(F)c1)n1c(N)nc2cc(Cl)ccc21 | 340 | 
27 | CC[C@@H](CC(=O)NC(C)C)n1c(N)nc2cc(Cl)ccc21 | 695 | 
28 | COn1c(-c2ccccc2)nc2ncccc21 | 928 | inhibition [2]: 36%
29 | CC[C@@H](CC(=O)NCC1CC1)n1c(N)nc2cc(Cl)ccc21 | 243 | 
30 | Nc1nc2cc(Cl)ccc2n1CCCC(=O)NCCN1CCOCC1 | 827 | 
31 | CC[C@@H](CC(=O)N[C@@H](COC(C)(C)C)C(=O)OC)n1c(N)nc2cc(Cl)ccc21 | 168 | 
32 | c1cnc2ncc(-c3ccncc3)n2c1 | 1010 | inhibition [2]: 20%
33 | O=C1c2ccccc2C(=O)C1(O)O | 776 | inhibition [2]: 27%
34 | CC[C@@H](CC(=O)NCCC1CCNC1)n1c(N)nc2cc(Cl)ccc21 (stereo not given in full) | 270 | 
35 | Clc1cccc(-c2cnc3ncccn23)c1 | 862 | inhibition [2]: 29%
36 | Nc1nc2ccc(Cl)cc2[nH]1 | 731 | inhibition [2]: 34%
37 | Nc1nc2cc(Cl)ccc2n1CCCC(=O)NCC1CCCCC1 | 83 | 

Reference: ChEMBL document CHEMBL1221253, “Fragment-based discovery and optimization of BACE1 inhibitors” (Bioorg Med Chem Lett, 2010)
